Laboratory results as given in the supplement of paper PMC11208160.

assay: recombinant barcode read abundance after kanamycin selection (control-corrected) (log10(CPM+1)); higher = more efficient recombination; sequences stand for … in AGTGCAGAGAAAATCGGCCAGTTTTCTCTGCCTGCAGTCCGCATGCCGT…AGATTTATGCAGCGGACTGCCTTTCTCCCAAAGTGATAAACCGGACAGTATCATGGACCGGTTTTCCCGGTAATCCGTATTTGCAAGGTTGGTTTCACT; site = the 11-nt target
Protocol: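 Pooled E. coli target-specificity screen for the IS621 bridge recombinase. Each library plasmid pairs an 11-nt target (CT core) with a bridge RNA whose target-binding loop (9-nt LTG + 4-nt RTG) is reprogrammed; the rest of the 177-nt WT IS621 bridge RNA scaffold is fixed. The plasmid is co-electroporated with a WT donor plasmid; recombinase is induced with 0.1 mM IPTG and recombinants are selected on kanamycin. Recombinant barcodes are sequenced, converted to CPM, averaged over two biological replicates and corrected by the unselected control CPM. Molecule = full bridge RNA written as DNA: LTG = specificity nt 1-9, RTG = reverse complement of specificity nt 8-11, in the WT scaffold.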
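Note: IS621 recombinase and bridge RNA in Escherichia coli cells.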

Sequence | recombinant barcode read abundance (log10)
ACGCGGCCTTGGGTTCTAACCTGTTGCCT (site CCGCGGCCTAG) | 0.42
ACGCGGCCTTGGGTTCTAACCTGTTGCCT (site GCGCGGCCTAG) | 0.147
ACGCGGCCTTGGGTTCTAACCTGTTGCCT (site TCGCGGCCTAG) | 0.108
ACGCGTGCTTGGGTTCTAACCTGTTGCGG (site ACGCGTGCTCC) | 0.727
ACGCGTGCTTGGGTTCTAACCTGTTGCGG (site CTAGTAACTTG) | 0.019
ACGGAATCTTGGGTTCTAACCTGTTGCCG (site ACGGAATCTCG) | 0.46
ACGGAATCTTGGGTTCTAACCTGTTGCCG (site TAAATCCCTTC) | 0.245
ACGGAGTCTTGGGTTCTAACCTGTTGCTA (site ACGGAGTCTTA) | 1.3
ACGGAGTCTTGGGTTCTAACCTGTTGCTA (site TACAGACCTCT) | 0.0854
ACGGCTACTTGGGTTCTAACCTGTTGCTT (site ACGGCTACTAA) | 0.83
ACGGCTACTTGGGTTCTAACCTGTTGCTT (site GGTTAGTCTCG) | 0.0618
ACGGCTTCTTGGGTTCTAACCTGTTGCTA (site ACGGCTTCTTA) | 0.494
ACGGCTTCTTGGGTTCTAACCTGTTGCTA (site AGGGCTTCTTA) | 0.485
ACGGGTGCTTGGGTTCTAACCTGTTGCCT (site ACGGGTGCTAG) | 1.86
ACGGGTGCTTGGGTTCTAACCTGTTGCCT (site ACGGTTGCTAG) | 0.103
ACGTCACCTTGGGTTCTAACCTGTTGCCT (site ACGTCACCTAG) | 0.536
ACGTCACCTTGGGTTCTAACCTGTTGCCT (site CCGTCACCTAG) | 0.0656
ACGTCACCTTGGGTTCTAACCTGTTGCCT (site GCGTCACCTAG) | 0.221
ACGTCACCTTGGGTTCTAACCTGTTGCCT (site TCGTCACCTAG) | 0.17
ACGTGGACTTGGGTTCTAACCTGTTGCTA (site ACGTGGACTTA) | 1.06
ACGTGGACTTGGGTTCTAACCTGTTGCTA (site GACAATGCTAT) | 0.181

Sequence | recombinant barcode read abundance (log10)
ACTAAACCTTGGGTTCTAACCTGTTGCCT (site ACTAAACCTAG) | 0.866
ACTAAACCTTGGGTTCTAACCTGTTGCCT (site GCTAACCCTAG) | 0.246
ACTAATCCTTGGGTTCTAACCTGTTGCTT (site ACTAATCCTAA) | 0.236
ACTAATCCTTGGGTTCTAACCTGTTGCTT (site CCTAATACTAA) | 0.105
ACTAGGACTTGGGTTCTAACCTGTTGCGA (site ACTAGGACTAC) | 0.0787
ACTAGGACTTGGGTTCTAACCTGTTGCGA (site ACTAGGACTCC) | 1.43
ACTAGGACTTGGGTTCTAACCTGTTGCGA (site ACTAGGACTGC) | 0.0331
ACTAGGACTTGGGTTCTAACCTGTTGCGA (site ACTAGGACTTC) | 2.27
ACTAGGTCTTGGGTTCTAACCTGTTGCTA (site ACTAGCTCTTA) | 0.0718
ACTAGGTCTTGGGTTCTAACCTGTTGCTA (site ACTAGGTCTTA) | 1.04
ACTAGTCCTTGGGTTCTAACCTGTTGCCT (site ACTAGTCCTAA) | 0.233
ACTAGTCCTTGGGTTCTAACCTGTTGCCT (site ACTAGTCCTAC) | 0.649
ACTAGTCCTTGGGTTCTAACCTGTTGCCT (site ACTAGTCCTAG) | 0.337
ACTAGTCCTTGGGTTCTAACCTGTTGCCT (site ACTAGTCCTAT) | 0.0393
ACTAGTGCTTGGGTTCTAACCTGTTGCCT (site AATAGTGCTAG) | 0.111
ACTAGTGCTTGGGTTCTAACCTGTTGCCT (site ACTAGTGCTAG) | 0.117
ACTAGTGCTTGGGTTCTAACCTGTTGCCT (site AGTAGTGCTAG) | 0.0194
ACTAGTGCTTGGGTTCTAACCTGTTGCCT (site ATTAGTGCTAG) | 0.0112
ACTCACTCTTGGGTTCTAACCTGTTGCCT (site ACTCACTCTAG) | 2.04
ACTCACTCTTGGGTTCTAACCTGTTGCCT (site CGATCTCCTGT) | 0.0794
ACTCGGCCTTGGGTTCTAACCTGTTGCGA (site ACTCGGCCTTC) | 2.11

Sequence | recombinant barcode read abundance (log10)
ACTCGGCCTTGGGTTCTAACCTGTTGCGA (site ACTGGGCCTTC) | 0.172
ACTCGGCCTTGGGTTCTAACCTGTTGCGT (site ACTCGGCCTAC) | 2.56
ACTCGGCCTTGGGTTCTAACCTGTTGCGT (site ACTCGGCCTAG) | 0.0703
ACTCTAACTTGGGTTCTAACCTGTTGCTT (site ACTATAACTAA) | 0.154
ACTCTAACTTGGGTTCTAACCTGTTGCTT (site ACTCTAACTAA) | 0.121
ACTCTAACTTGGGTTCTAACCTGTTGCTT (site ACTGTAACTAA) | 0.0269
ACTCTAACTTGGGTTCTAACCTGTTGCTT (site ACTTTAACTAA) | 0.0201
ACTGGTTCTTGGGTTCTAACCTGTTGCCG (site ACTGGTTCTCG) | 0.696
ACTGGTTCTTGGGTTCTAACCTGTTGCCG (site TACTCACCTAA) | 0.0451
ACTGTCACTTGGGTTCTAACCTGTTGCGG (site ACTGTCACTCC) | 3.28
ACTGTCACTTGGGTTCTAACCTGTTGCGG (site GTGTATTCTAG) | 0.046
ACTTAGACTTGGGTTCTAACCTGTTGCCT (site ACTTAGACTAG) | 1.02
ACTTAGACTTGGGTTCTAACCTGTTGCCT (site ACTTAGACTCG) | 0.313
ACTTAGACTTGGGTTCTAACCTGTTGCCT (site ACTTAGACTGG) | 0.258
ACTTAGACTTGGGTTCTAACCTGTTGCCT (site ACTTAGACTTG) | 0
ACTTAGACTTGGGTTCTAACCTGTTGCGG (site ACTTAGACTCC) | 2.56
ACTTAGACTTGGGTTCTAACCTGTTGCGG (site TCTTAGACTCC) | 0.416
ACTTAGCCTTGGGTTCTAACCTGTTGCCT (site ACTTAGCCTAG) | 1.33
ACTTAGCCTTGGGTTCTAACCTGTTGCCT (site ACTTAGCCTAT) | 0.0989
ACTTCCACTTGGGTTCTAACCTGTTGCCT (site ACTTCCACTAG) | 0.613
ACTTCCACTTGGGTTCTAACCTGTTGCCT (site CCTTCCACTAG) | 0.0483

Sequence | recombinant barcode read abundance (log10)
ACTTCCACTTGGGTTCTAACCTGTTGCCT (site GCTTCCACTAG) | 0.0573
ACTTCCACTTGGGTTCTAACCTGTTGCCT (site TCTTCCACTAG) | 0.111
ACTTCTACTTGGGTTCTAACCTGTTGCTA (site ACATCTACTTA) | 0.141
ACTTCTACTTGGGTTCTAACCTGTTGCTA (site ACTTCTACTTA) | 0.0751
ACTTGAACTTGGGTTCTAACCTGTTGCCT (site ACATGAACTAG) | 0.419
ACTTGAACTTGGGTTCTAACCTGTTGCCT (site ACCTGAACTAG) | 0.0239
ACTTGAACTTGGGTTCTAACCTGTTGCCT (site ACGTGAACTAG) | 0.146
ACTTGAACTTGGGTTCTAACCTGTTGCCT (site ACTTGAACTAG) | 0.383
ACTTGAACTTGGGTTCTAACCTGTTGCTT (site ACTTGAACTAA) | 0.0959
ACTTGAACTTGGGTTCTAACCTGTTGCTT (site ACTTTAGCTAA) | 0.0785
ACTTGAGCTTGGGTTCTAACCTGTTGCAT (site ACTTGAGCTAT) | 1.36
ACTTGAGCTTGGGTTCTAACCTGTTGCAT (site TAGACTCCTTG) | 0.232
ACTTTAACTTGGGTTCTAACCTGTTGCTT (site ACTATAACTAA) | 0.185
ACTTTAACTTGGGTTCTAACCTGTTGCTT (site ACTCTAACTAA) | 0.229
ACTTTAACTTGGGTTCTAACCTGTTGCTT (site ACTGTAACTAA) | 0.0934
ACTTTAACTTGGGTTCTAACCTGTTGCTT (site ACTTTAACTAA) | 0.217
ACTTTAGCTTGGGTTCTAACCTGTTGCAG (site ACATTAGCTTT) | 0.056
ACTTTAGCTTGGGTTCTAACCTGTTGCAG (site ACTTTAGCTCT) | 0.694
ACTTTGCCTTGGGTTCTAACCTGTTGCCT (site ACATTGCCTAG) | 0.0554
